# How the values were obtained:
# [1] = biological target: Beta-3 adrenergic receptor (Homo sapiens, UniProt P13945); assay: DRUGMATRIX: Adrenergic beta3 radioligand binding (ligand: [125I] Cyanopindolol); type: cell membranes, HEK293, Membrane; conditions: Not Active = under 50% inhibition at 10 µM
# [2] = biological target: 5-hydroxytryptamine receptor 2B (Homo sapiens, UniProt P41595); type: cell membranes, CHO-K1, Membrane; conditions: cho-k1; further: in other assays of this panel Not Active means under 50% inhibition at 10 µM
# [3] = biological target: T1, C-X-C chemokine receptor type 2 (Homo sapiens, UniProt P25025); type: cell membranes, CHO-K1, Membrane; conditions: cho-k1; further: in other assays of this panel Not Active means under 50% inhibition at 10 µM
# T1 sequence (P25025 whole entry): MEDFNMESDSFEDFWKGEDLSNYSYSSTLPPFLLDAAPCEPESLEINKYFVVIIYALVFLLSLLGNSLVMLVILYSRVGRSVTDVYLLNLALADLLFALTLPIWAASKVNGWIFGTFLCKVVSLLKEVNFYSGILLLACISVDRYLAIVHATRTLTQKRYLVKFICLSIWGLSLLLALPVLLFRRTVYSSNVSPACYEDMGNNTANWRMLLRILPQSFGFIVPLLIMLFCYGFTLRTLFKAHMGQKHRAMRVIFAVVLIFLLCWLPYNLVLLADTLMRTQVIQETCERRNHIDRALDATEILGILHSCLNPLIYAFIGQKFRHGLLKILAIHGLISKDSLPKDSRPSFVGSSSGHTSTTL
# [4] = DRUGMATRIX: Glutamate, NMDA, Agonism radioligand binding (ligand: [3H] CGP-39653); type: cell membranes, Rattus norvegicus, Wistar, Cerebral cortex, Membrane; conditions: Not Active = under 50% inhibition at 10 µM
# Glycine receptor = Glycine receptor (Rattus norvegicus, UniProt P22771+P24524+P07727+P20781); type: cell membranes, Wistar, Spinal cord, Membrane; further: in other assays of this panel Not Active means under 50% inhibition at 10 µM
# [5] = biological target: T2, Neuropeptide Y receptor type 1 (Homo sapiens, UniProt P25929); type: cell membranes, Membrane; conditions: sk-n-mc; further: in other assays of this panel Not Active means under 50% inhibition at 10 µM
# T2 sequence (P25929 whole entry): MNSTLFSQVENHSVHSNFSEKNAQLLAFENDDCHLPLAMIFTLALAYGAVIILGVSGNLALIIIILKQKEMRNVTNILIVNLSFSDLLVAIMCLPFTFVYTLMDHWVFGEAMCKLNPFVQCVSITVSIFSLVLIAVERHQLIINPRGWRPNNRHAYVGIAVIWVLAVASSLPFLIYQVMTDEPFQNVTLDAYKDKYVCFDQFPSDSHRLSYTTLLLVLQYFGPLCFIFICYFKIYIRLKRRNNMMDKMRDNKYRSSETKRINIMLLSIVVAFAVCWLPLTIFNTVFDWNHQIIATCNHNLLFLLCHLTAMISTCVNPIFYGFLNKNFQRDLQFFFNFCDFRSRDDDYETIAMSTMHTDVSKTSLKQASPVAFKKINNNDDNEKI
# Nitric oxide synthase 1 = Nitric oxide synthase 1 (Rattus norvegicus, UniProt P29476); type: tissue-based, Cerebellum; further: in other assays of this panel Not Active means under 50% inhibition at 10 µM
# [6] = biological target: Tyrosine-protein kinase Fyn (Homo sapiens, UniProt P06241); assay: biochemical; type: cell-based, Insect cells; conditions: insect cells
# Sequence of Tyrosine-protein kinase Fyn (P06241 whole entry): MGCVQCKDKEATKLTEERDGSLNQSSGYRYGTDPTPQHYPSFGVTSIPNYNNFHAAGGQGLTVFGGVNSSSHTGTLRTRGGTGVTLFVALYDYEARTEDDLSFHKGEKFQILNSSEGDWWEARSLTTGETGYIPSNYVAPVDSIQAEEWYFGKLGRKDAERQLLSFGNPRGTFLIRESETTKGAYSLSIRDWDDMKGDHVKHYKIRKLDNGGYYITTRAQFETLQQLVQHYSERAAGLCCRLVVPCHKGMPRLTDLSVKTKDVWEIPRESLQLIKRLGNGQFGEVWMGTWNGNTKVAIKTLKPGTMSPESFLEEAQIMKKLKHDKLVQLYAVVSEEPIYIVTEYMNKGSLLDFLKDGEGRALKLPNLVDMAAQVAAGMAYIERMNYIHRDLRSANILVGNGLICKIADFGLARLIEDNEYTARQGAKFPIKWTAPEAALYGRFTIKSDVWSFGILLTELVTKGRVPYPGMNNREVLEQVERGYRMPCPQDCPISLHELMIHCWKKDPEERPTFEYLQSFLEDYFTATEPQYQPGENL
# Sequence of 5-hydroxytryptamine receptor 2B (P41595 whole entry): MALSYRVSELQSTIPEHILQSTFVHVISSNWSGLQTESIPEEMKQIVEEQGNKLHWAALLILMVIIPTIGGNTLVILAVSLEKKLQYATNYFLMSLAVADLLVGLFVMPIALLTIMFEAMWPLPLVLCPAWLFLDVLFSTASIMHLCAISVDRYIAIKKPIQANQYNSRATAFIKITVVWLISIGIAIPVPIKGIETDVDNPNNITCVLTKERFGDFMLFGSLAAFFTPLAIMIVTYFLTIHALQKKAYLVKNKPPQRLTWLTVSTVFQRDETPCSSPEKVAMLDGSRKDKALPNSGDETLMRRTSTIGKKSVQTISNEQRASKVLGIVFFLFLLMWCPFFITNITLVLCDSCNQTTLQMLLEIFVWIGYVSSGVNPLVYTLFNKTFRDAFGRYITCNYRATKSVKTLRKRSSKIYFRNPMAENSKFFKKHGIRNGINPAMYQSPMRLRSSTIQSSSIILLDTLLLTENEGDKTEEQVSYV
# Sequence of Nitric oxide synthase 1 (P29476 whole entry): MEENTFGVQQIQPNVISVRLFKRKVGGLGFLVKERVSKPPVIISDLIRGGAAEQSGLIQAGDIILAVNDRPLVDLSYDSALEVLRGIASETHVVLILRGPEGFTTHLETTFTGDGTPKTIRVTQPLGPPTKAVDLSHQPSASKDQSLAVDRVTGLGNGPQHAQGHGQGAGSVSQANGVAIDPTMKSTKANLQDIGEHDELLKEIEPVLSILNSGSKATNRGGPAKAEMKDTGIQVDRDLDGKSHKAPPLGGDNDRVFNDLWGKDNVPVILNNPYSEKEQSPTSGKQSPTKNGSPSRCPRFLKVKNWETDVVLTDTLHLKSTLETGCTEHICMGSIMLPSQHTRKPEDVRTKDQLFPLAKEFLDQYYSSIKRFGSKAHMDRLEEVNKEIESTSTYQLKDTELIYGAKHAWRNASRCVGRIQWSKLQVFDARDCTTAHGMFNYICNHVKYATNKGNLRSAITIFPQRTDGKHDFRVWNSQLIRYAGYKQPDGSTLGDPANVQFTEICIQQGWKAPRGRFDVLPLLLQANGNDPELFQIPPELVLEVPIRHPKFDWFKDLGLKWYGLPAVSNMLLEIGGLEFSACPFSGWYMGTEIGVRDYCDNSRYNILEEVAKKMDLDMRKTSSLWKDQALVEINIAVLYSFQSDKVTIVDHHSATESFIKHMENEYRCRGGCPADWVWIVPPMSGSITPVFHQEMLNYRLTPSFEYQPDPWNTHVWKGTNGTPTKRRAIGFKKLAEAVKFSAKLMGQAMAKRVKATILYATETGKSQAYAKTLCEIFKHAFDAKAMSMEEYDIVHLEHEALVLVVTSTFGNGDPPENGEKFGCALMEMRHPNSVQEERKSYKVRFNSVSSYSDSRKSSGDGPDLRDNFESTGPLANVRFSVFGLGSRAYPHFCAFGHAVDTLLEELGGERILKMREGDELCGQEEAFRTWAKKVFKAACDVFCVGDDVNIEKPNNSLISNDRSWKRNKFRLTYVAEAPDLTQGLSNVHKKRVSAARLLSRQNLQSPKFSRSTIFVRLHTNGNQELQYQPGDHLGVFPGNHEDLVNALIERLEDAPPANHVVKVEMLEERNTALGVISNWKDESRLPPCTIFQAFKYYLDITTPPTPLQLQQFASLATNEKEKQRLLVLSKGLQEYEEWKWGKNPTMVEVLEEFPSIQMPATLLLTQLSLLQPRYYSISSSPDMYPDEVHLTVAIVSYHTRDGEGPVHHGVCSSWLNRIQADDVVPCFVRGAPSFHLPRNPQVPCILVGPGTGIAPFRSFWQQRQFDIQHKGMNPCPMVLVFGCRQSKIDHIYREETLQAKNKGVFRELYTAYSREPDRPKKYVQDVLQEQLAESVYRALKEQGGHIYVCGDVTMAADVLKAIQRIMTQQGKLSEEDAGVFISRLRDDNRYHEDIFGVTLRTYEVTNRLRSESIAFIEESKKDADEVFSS
# Sequence of Beta-3 adrenergic receptor (P13945 whole entry): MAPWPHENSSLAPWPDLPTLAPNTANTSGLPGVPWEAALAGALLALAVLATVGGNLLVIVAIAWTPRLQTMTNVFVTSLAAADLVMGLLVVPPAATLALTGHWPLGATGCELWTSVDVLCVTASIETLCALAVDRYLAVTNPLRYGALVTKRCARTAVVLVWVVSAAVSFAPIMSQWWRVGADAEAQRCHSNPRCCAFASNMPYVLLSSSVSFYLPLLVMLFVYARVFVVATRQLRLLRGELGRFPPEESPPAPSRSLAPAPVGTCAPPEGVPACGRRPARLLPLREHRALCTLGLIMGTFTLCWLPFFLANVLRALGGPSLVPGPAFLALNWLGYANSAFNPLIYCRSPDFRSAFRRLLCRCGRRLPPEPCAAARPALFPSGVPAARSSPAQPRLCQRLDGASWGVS
Compound,IC50 ([1]; hek293),IC50 [2],IC50 [3],IC50 [4],Ki [4],IC50 (Glycine receptor),IC50 [5],IC50 (Nitric oxide synthase 1),IC50 [6],IC50 ([1]; read-out: IC50),Ki ([1]; read-out: Ki),Ki ([1]; hek293),Ki [2],Ki [3],Ki (Glycine receptor),Ki [5],Ki (Nitric oxide synthase 1),Ki [6]
COc1ccc(Cl)cc1C(=O)NCCc1ccc(S(=O)(=O)NC(=O)NC2CCCCC2)cc1 [GLYBURIDE],Not Active,Not Active,Not Active,Not Active,Not Active,Not Active,Not Active,Not Active,Not Active,–,–,–,–,–,–,–,–,–
CCN1CCN(C(=O)N[C@@H](C(=O)N[C@@H]2C(=O)N3[C@@H]2SC(C)(C)[C@@H]3C(=O)O)c2ccccc2)C(=O)C1=O [PIPERACILLIN],Not Active,Not Active,Not Active,Not Active,Not Active,Not Active,Not Active,Not Active,Not Active,–,–,–,–,–,–,–,–,–
CCC1(c2ccccc2)C(=O)NC(=O)NC1=O [PHENOBARBITAL],Not Active,Not Active,Not Active,Not Active,Not Active,Not Active,Not Active,Not Active,Not Active,–,–,–,–,–,–,–,–,–
CC1(COc2ccc(CC3SC(=O)NC3=O)cc2)CCCCC1 (stereo unspecified) [CIGLITAZONE],–,Not Active,Not Active,Not Active,Not Active,Not Active,Not Active,Not Active,Not Active,17.9 µM,13.4 µM,–,–,–,–,–,–,–
O=C(O)CNCP(=O)(O)O [GLYPHOSATE],Not Active,Not Active,Not Active,Not Active,Not Active,Not Active,Not Active,Not Active,Not Active,–,–,–,–,–,–,–,–,–
OC[C@H]1O[C@@H]2O[C@H]3[C@H](O)[C@@H](O)[C@@H](O[C@H]4[C@H](O)[C@@H](O)[C@@H](O[C@H]5[C@H](O)[C@@H](O)[C@@H](O[C@H]6[C@H](O)[C@@H](O)[C@@H](O[C@H]7[C@H](O)[C@@H](O)[C@@H](O[C@H]1[C@H](O)[C@H]2O)O[C@@H]7CO)O[C@@H]6CO)O[C@@H]5CO)O[C@@H]4CO)O[C@@H]3CO [ALFADEX],Not Active,Not Active,Not Active,Not Active,Not Active,Not Active,Not Active,Not Active,Not Active,–,–,–,–,–,–,–,–,–
Nc1nc(F)nc2c1ncn2[C@@H]1O[C@H](CO)[C@@H](O)[C@@H]1O [FLUDARABINE],Not Active,Not Active,Not Active,Not Active,Not Active,Not Active,Not Active,Not Active,Not Active,–,–,–,–,–,–,–,–,–
O=C(O)CO [GLYCOLIC ACID],Not Active,Not Active,Not Active,Not Active,Not Active,Not Active,Not Active,Not Active,Not Active,–,–,–,–,–,–,–,–,–
O=C(NCCN1CCOCC1)c1ccc(Cl)cc1 [MOCLOBEMIDE],Not Active,Not Active,Not Active,Not Active,Not Active,Not Active,Not Active,Not Active,Not Active,–,–,–,–,–,–,–,–,–
CARBOXYMETHYLCELLULOSE,Not Active,Not Active,Not Active,Not Active,Not Active,Not Active,Not Active,Not Active,Not Active,–,–,Not Active,Not Active,Not Active,Not Active,Not Active,Not Active,Not Active
NC(N)=Nc1nc(CSCCC(N)=NS(N)(=O)=O)cs1 [FAMOTIDINE],Not Active,Not Active,Not Active,Not Active,Not Active,Not Active,Not Active,Not Active,Not Active,–,–,–,–,–,–,–,–,–
COc1ccc(C[C@H](N)C(=O)N[C@H]2[C@@H](O)[C@H](n3cnc4c(N(C)C)ncnc43)O[C@@H]2CO)cc1 [PUROMYCIN],Not Active,Not Active,Not Active,Not Active,Not Active,Not Active,Not Active,Not Active,Not Active,–,–,–,–,–,–,–,–,–

# — ChEMBL document CHEMBL1909046, “DrugMatrix in vitro pharmacology data”
